These results are taken from patent US5877185A, “Synergistic compositions useful as anti-tumor agents” (priority 1995, dated 1999).

The structures appear in SMILES notation. Entries after “also recorded” stand apart in the source; their conditions may differ.

For one data set, the system named is HIV. Conditions: Cole et al.; cited from earlier work.
Another data set relates to L 1210 cells. Description: cytotoxic effect of IABP and INO2 BA, alone and combined, on L 1210 cell growth. Type of data set: cell-based, murine. The following applies: Mus musculus, L1210, 72 h, three days, read-out: decrease of L 1210 cell proliferation. The protocol:
64 μM INO2 BA decreased L 1210 cell proliferation by approximately 80% over a three day growth period.

Data set [1] deals with SIVmac239 or virus isolates in CEM ×174 cells. Conditions: Chuang et al., submitted (1994); cited from earlier work.
The next data set relates to cells. Conditions: Cole et al.; cited from earlier work.
The subject of data set [2] is SIVmac239 in CEM ×174 cells. Description: effect of IABP on SIVmac239 replication, p27 core antigen assay. Type of data set: cell-based, SIV. The protocol:
CEM ×174 cells (3×10^5 /ml) were infected with SIVmac239 on day 0 and incubated for 3 days (37° C., 5% CO2) before treatment with IABP (0-0.5 mM). The cultures were incubated for an additional 4 days before being replenished with fresh CEM ×174 cells (3×10^5/ml) and IABP. On day 10 the levels of free virus in the supernatants of the cultures were assessed using the SIV p27 core antigen assay (Coulter Corp). The absorbance was measured at 450 nm.
The effect of IABP on the infection cycle of SIV was determined. CEM ×174 cells (3×10^5 /ml) were infected with SIVmac239 on day 0 and incubated for 3 days ([…], 5% CO2) before treatment with IABP (0-0.5 mM). The cultures were incubated for an additional 4 days before being replenished with fresh CEM ×174 cells (3×10^5/ml) and IABP. On day 10 the levels of free virus in the supernatants of the cultures were assessed using the SIV p27 core antigen assay (Coulter Copr.) The absorbance was measured at 450 nm.

In data set [3] the test system is CCHC zinc fingers of pADPRT or p7 NC protein of retroviruses. The following applies: cited from earlier work.

Regarding `Nc1ccc2oc(=O)ccc2c1I` [IABP, 5-iodo-6-amino-1,2-benzopyrone], the “infectious cycle of HIV” value in the data set with HIV was “blocked the infectious cycle of HIV”. For the same compound, in the data set with L 1210 cells (IABP 160 μM), the inhibition at 160 µM is ~55%. The inhibition at 320 µM in the data set with L 1210 cells (IABP 320 μM) is ~80%. Further, the inhibition at 480 µM with L 1210 cells (IABP 480 μM) is ~93%. The “sensitivity to addition of BSO” value in data set [1] is given as “insensitive”. For the same compound, the “toxicity of IABP” value in the data set on cells is “very low; also recorded: no toxic effect on cells; also recorded: non-toxicity”. For the same compound, the p27 levels result in data set [2] (0-0.5 mM, day 10) is listed as “depresses p27 levels proportional to its concentration”. Further, in data set [2] (0.3 and 0.5 mM IABP), the “titre of virions in the supernatant” value is “reduced the titre of virions”. Moreover, the “influence on CCHC zinc fingers” value in data set [3] was “no influence”.
